Measurements: patent publication US7820700B2, “2-phenylpyridine derivative” (Astellas Pharma Inc., priority 2004, dated 2010)
Counter-ions that a name gives are not always drawn.

Experiments:
[1] = target: T1, xanthine oxidase (derived from butter milk) (Bos taurus, UniProt P80457); test: Xanthine oxidase-inhibitory activity (pterin oxidation, fluorescence); format: biochemical; conditions: pterin 5 μM, room temperature; read-out: IC50 (xanthine oxidase inhibition)
T1 construct: xanthine oxidase (derived from butter milk, manufactured by Sigma); purchased Sigma; host or cells: butter milk (natural source)
T1 sequence (P80457 whole entry): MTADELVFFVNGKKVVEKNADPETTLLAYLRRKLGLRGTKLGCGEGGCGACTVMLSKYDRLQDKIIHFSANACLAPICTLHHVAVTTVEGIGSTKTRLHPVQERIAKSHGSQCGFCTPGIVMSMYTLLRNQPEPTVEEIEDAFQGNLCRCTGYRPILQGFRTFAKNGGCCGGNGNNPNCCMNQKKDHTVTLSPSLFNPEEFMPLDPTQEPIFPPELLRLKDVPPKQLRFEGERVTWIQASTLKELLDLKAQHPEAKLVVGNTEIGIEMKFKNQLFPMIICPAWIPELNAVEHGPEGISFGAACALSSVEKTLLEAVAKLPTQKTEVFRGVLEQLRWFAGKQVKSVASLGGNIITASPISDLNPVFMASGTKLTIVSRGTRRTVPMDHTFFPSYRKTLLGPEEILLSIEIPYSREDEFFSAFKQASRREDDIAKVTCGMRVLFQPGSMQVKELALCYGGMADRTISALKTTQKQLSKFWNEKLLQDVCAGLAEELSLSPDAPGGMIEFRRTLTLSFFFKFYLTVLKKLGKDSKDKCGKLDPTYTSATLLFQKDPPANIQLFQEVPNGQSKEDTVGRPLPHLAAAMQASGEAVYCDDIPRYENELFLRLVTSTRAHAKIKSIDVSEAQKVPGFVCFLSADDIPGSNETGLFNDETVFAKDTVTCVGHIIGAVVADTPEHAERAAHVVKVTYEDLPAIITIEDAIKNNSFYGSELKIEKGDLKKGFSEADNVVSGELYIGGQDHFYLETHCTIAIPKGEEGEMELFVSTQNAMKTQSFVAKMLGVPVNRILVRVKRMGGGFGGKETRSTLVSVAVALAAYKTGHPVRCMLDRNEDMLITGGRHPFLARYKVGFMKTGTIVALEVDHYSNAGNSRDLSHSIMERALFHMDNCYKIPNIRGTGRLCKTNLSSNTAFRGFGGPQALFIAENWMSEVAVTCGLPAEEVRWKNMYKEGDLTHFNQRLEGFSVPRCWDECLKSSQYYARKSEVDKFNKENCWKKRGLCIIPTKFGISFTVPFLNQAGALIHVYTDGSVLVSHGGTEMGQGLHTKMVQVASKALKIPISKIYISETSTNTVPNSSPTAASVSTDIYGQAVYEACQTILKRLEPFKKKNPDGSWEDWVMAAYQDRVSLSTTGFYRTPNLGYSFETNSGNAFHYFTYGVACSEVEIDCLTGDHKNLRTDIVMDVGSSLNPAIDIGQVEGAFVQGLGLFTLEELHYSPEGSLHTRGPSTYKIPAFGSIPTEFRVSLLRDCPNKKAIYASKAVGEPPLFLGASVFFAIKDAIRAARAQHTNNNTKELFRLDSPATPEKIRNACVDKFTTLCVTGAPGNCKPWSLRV
Experimental: A test compound was dissolved in DMSO (manufactured by Nakarai) so as to be a concentration of 10 mM and then used after the concentration was adjusted to an aimed one at use.
The evaluation of xanthine oxidase-inhibitory activity of the compound of the invention was carried out using a method described in a document (Free Radic. Biol. Med. 6, 607-615, 1992) with partial modification. Namely, xanthine oxidase (derived from butter milk, manufactured by Sigma) was adjusted to 0.03 units/ml using a 50 mM phosphate buffer and was added to a 96-well plate in an amount of 50 μl/well. Each test compound diluted so as to be a final concentration was added thereto in an amount of 2 μl/well, followed by treatment at room temperature for 20 minutes. Pterin (manufactured by Sigma) was added thereto so as to be a final concentration of 5 μM, followed by reaction at room temperature for 10 minutes. Measurement was performed using a microplate reader saphire (manufactured by Tecan) under conditions of excitation at 345 nm and emission at 390 nm (pterin was oxidized by xanthine oxidase into isoxanthopterin, which emitted a light under the conditions).
The concentration of the test compound at which 50% inhibition was observed (IC50 value) was calculated, the emissions of isoxanthopterin under conditions of the presence or absence of xanthine oxidase being 0% inhibition and 100% inhibition, respectively.

[2] = test system: pyrimidine synthetic pathway (BUN level); test: Pyrimidine synthetic pathway-inhibitory action (influence on BUN level); format: in vivo; conditions: oral administration of 30 mg/kg
Text: Allopurinol which is an existing hyperuricemia therapeutic drug is known to cause renal dysfunction as an undesirable action. As mentioned previously, since allopurinol has a nucleic acid-like structure, as one cause thereof, it is presumed that it inhibits pyrimidine synthetic pathway. […] Thus, according to the method described in the document, the influence of the compounds of the invention on a BUN level was confirmed.

AKR1C3 (17βHSD5) = target: T2, AKR1C3 (17βHSD5) (Homo sapiens, UniProt P42330); test: AKR1C3 inhibitory action (DELFIA Testosterone Reagents); format: biochemical; conditions: read-out: IC50 (AKR1C3 inhibition)
T2 sequence (P42330 1-323): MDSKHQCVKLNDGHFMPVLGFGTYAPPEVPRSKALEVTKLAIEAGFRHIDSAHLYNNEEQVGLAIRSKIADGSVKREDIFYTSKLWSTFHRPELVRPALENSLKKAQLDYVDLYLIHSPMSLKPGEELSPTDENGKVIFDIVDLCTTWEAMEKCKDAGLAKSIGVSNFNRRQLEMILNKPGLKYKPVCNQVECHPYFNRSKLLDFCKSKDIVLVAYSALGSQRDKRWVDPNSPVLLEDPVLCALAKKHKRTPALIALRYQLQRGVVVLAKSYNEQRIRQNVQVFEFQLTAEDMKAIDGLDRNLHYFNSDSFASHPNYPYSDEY
Text: AKR1C3 known as a molecule belonging to aldo-keto reductase is known as a multifunctional enzyme (Jikken Igaku 23, 90-97, 2005). There is expected the application of a compound inhibiting AKR1C3 to various morbid conditions including inflammatory diseases (Mol. Pharmacol 67, 60-68, 2005) (Current Pharmaceutical Design 10, 3505-3524, 2004) (J. Biol. Chem 273, 1855-1888, 1998).

TNBS-induced enteritis = test: Trinitrobenzenesulfonic acid-induced enteritis-inhibitory action; format: in vivo, male Wistar rats; conditions: 3 mg/kg oral once a day, dissection on 21st day, Wistar rat
Experimental: The effectiveness of the compound of the invention on an enteritis model can be also evaluated by a model using trinitrobenzenesulfonic acid (TNBS) as an inducing agent instead of acetic acid (Cell. Mol. Biol, 38, 189-199, 1992). Thus, referring to the method described in the report, the enteritis-suppressing action of the compound of the invention was evaluated.
Namely, TNBS or physiological saline as a normal group was administered into the rectum of male Wistar rats of 200 to 250 g. Thereafter, a test compound or 0.5% methyl cellulose (control group) was orally administered once a day and dissection was performed on each administered group on 21st day. A part of the large intestine 2 to 7 cm from the anus side was cut out and incised. After feces were removed by means of tweezers, the part was washed and a score of morbid conditions was evaluated and tissue weight was measured. The score of morbid conditions and a tissue weight increase-suppressing ratio were calculated as in the evaluation method of the above acetic acid-induced enteritis-suppressing action.

[3] = test system: VEGF mRNA in the vitreous body; test: Diabetic retinopathy model (streptozotocin), VEGF mRNA in the vitreous body; format: in vivo, male Wistar rat; conditions: 30 mg/kg oral once a day for 7 days, STZ rats, vs control group
Experimental: The efficiency of the compound of the invention on diabetic retinopathy was tested by the method described in European Journal of Pharmacology 458 (2003) 283-289 (except that the animal used in the experiment was male Wistar rat, 10 weeks old).
Streptozotocin (STZ) was administered to the animals to be tested and increase in blood sugar level was confirmed after 24 hours. Thereafter, the animals were divided into a 0.5% methyl cellulose-administered group (control group) and 30 mg/kg test compound-administered group and oral administration was performed once a day for 7 days.

Row | Compound | IC50 [1] | further results
1 | CC1(C)CC(Oc2ccc(-c3cc(C(=O)O)ccn3)cc2C#N)CC(C)(C)C1 [Example 44] | 4.3 nM | 
2 | N#Cc1cc(-c2cc(C(=O)O)ccn2)ccc1OCc1ccccn1 [Example 21] | 10 nM | 
3 | CC(C)COc1ccc(-c2nccc(C(=O)O)c2F)cc1C#N [Example 75] | 3.2 nM | 
4 | COC1(C2CCCCC2)CCN(c2ccc(-c3cc(C(=O)O)ccn3)cc2C#N)CC1 [Example 67] | 2.2 nM | 
5 | CC(C)CSc1ccc(-c2cnccc2C(=O)O)cc1C#N [Example 7, sodium 5-[3-cyano-4-(isobutylthio)phenyl]isonicotinate] | 2.5 nM | 
6 | N#Cc1cc(-c2cc(C(=O)O)ccn2)ccc1NC1CCCCCC1 [Example 63] | 1.1 nM | 
7 | CC(C)COc1ccc(-c2cc(C(=O)O)c(Cl)cn2)cc1C#N [Example 77] | 4 nM | 
8 | CC(C)=CCOc1ccc(-c2cc(C(=O)O)ccn2)cc1C#N [Example 72] | 3.1 nM | 
9 | N#Cc1cc(-c2cc(C(=O)O)ccn2)ccc1N1CCCCCC1 [Example 4, 2-(4-azepan-1-yl-3-cyanophenyl)isonicotinic acid monohydrochloride] | 1.2 nM | Pyrimidine synthetic pathway inhibitory action (BUN level) [2]: no inhibitory action; IC50 (AKR1C3 (17βHSD5)): ≤ 1000 nM; Suppression of intestinal tissue weight increase (TNBS-induced enteritis): ≥ 70%; Suppression of increase of VEGF mRNA in the vitreous body [3]: significant suppressing action
10 | CC(C)COc1ccc(-c2cc(C(=O)O)ccn2)cc1C#N [Example 1, 2-(3-cyano-4-isobutoxyphenyl)isonicotinic acid] | 3.6 nM | 
11 | CSCCCOc1ccc(-c2cc(C(=O)O)ccn2)cc1C#N [Example 3, 2-{3-cyano-4-[3-(methylthio)propoxy]phenyl}isonicotinic acid] | 5 nM | 
12 | N#Cc1cc(-c2cc(C(=O)O)ccn2)ccc1OCCOc1cc(F)cc2c1OCCC2 [Example 33] | 7.3 nM | 
13 | CC1CCN(c2ccc(-c3cc(C(=O)O)ccn3)cc2C#N)CC1 [Example 45] | 1.3 nM | Pyrimidine synthetic pathway inhibitory action (BUN level) [2]: no inhibitory action
14 | CCCCN(C)c1ccc(-c2cc(C(=O)O)ccn2)cc1C#N [Example 57] | 3.1 nM | 
15 | N#Cc1cc(-c2cc(C(=O)O)ccn2)ccc1OCc1ccccc1 [Example 9] | 2.6 nM | 
16 | N#Cc1cc(-c2cc(C(=O)O)ccn2)ccc1OCC(F)(F)F [Example 13] | 10 nM | 
17 | N#Cc1cc(-c2cc(C(=O)O)ccn2)ccc1OCCOc1ccccc1 [Example 30] | 4.2 nM | 
18 | N#Cc1cc(-c2cc(C(=O)O)ccn2)ccc1N1CC=CCC1 [Example 49] | 2.8 nM | 
19 | N#Cc1cc(-c2cc(C(=O)O)ccn2)ccc1OC1CCOCC1 [Example 14] | 4.1 nM | 
20 | CC(C)COc1c(Br)cc(-c2cc(C(=O)O)ccn2)cc1C#N [Example 79] | 5.8 nM | 
